# Key:
# Staphylococcus carnosus = assay: TAPS (Trans Acting Peptide System) assay, radial diffusion read-out; type: cell-based; parameters: key: classified as 4>3>2>1; whereas 4 is better than 1; classified as 4>3>2>1; classified as 4>3>2>1; wildtype activity corresponds to 1; details: peptide expressed in E. coli
# Protocol: A range of antimicrobial polypeptides, which are variants of SEQ ID NO: 1, were tested in the TAPS assay. TAPS may be used to identify new or improved genes encoding peptides that can kill or inhibit the growth of target cells (see PCT application WO 2004/033715). The TAPS assay, an acronym for Trans Acting Peptide System, is based on having a sensitive host producing a peptide followed by screening for its activity in trans against an indicator strain. The advantage of this system is based on that the antimicrobial peptide is expressed in the Gram-negative bacterium E. coli and its antimicrobial activity can be monitored on different microbes including Gram-negatives, positives or fungi. Additionally, TAPS offers the possibility to produce correctly folded AMPs containing disulfide bonds in the host cells, thereby retaining their antimicrobial activities.
# The TAPS approach requires first, that expression of the peptide is under control of an inducible promoter with tight regulation, because the host cells are sensitive to the peptide when producing it. Secondly, the produced peptide has to be released to the media so that it can interact with the target organism.
# The TAPS screening can be carried out either in solid or liquid media. On solid media, a plasmid library is initially introduced into E. coli host cells. […] In the next step, the filter containing the colonies is transferred to LB growth medium containing inducer (0.1% arabinose) to permit peptide synthesis. Subsequently, the target strain, for example S. carnosus, is overlaid onto the plate and allowed to grow for 12-16 hours at 37° C. Finally, visual inspection of the host cells capable of reducing the proliferation of the target cells is performed and the nucleotide sequence encoding for the antimicrobial peptide is recovered from the host cells. DNA sequence analysis of the variants is obtained to elucidate the nature of the peptide.
# As mentioned above, the TAPS screening can also be performed using liquid medium. This procedure requires the use of robotics to analyze large number of clones. In this system, the host E. coli origami cells are transformed with the plasmid library and plated out on LB medium+0.2% glucose+ampicillin (200 mg/L). Independent colonies are then inoculated into 96 or 384-well plates containing 200 micro-L of TB medium+ampicillin (200 mg/L) and cultured overnight at 37° C. These cultures are then replicated robotically and grown to exponential phase until inducer (0.1% arabinose) is added to trigger peptide synthesis. The next step consists in hydrolyzing the cells such that the peptide is released to the media by hot acid hydrolysis. This treatment consists on adding 1 M sodium Phosphate buffer pH 2.3 to obtain a final pH approximately of 2.3 and incubating the cultures overnight at 80° C. Next day, a 25 micro-L aliquot of the hydrolyzed cultures is used to perform an activity test against the desired target organisms. The activity test performed was a Radial Diffusion Assay (RDA) where an aliquot of the hydrolyzed cultures was added to the agarose media inoculated with the target strain, S. carnosus. […] Measurements of the diameter of the clearing zones were performed to quantify the potency of the antimicrobial activity of the peptides.
# The antimicrobial activity (against Staphylococcus carnosus) of the tested plectasin variants, which was measured using the TAPS assay, is shown in table 3. The antimicrobial activity corresponds to the clearing zone size and has been classified as 4>3>2>1; whereas 4 is better than 1, and wildtype activity corresponds to 1.
# B. subtilis [1] = assay: Minimal Effective Concentration (MEC) assay; type: cell-based, Bacillus subtilis
# Protocol: (§1) Three antimicrobial polypeptides, which are variants of SEQ ID NO: 1, were tested for antimicrobial activity. A Minimal Effective Concentration assay (MEC, expressed as micrograms/mL) against different microorganisms was performed using the three plectasin mutants, Y40YR, N17R and Y25R following the protocol described in the book of Methods in Molecular Biology, Vol. 78, Antibacterial peptide protocol William M. Shafer, Human Press.
# S. epidermis = assay: Minimal Effective Concentration (MEC) assay; type: cell-based, Staphylococcus epidermidis
# Protocol: as §1
# M. luteus [2] = assay: Minimal Effective Concentration (MEC) assay; type: cell-based, Micrococcus luteus
# Protocol: as §1
# [3] = test system: Staphylococcus aureus, MRSA ST80 (2003); assay: MIC, NCCLS/CLSI guidelines (Example 5), strain E; type: cell-based; details: relative to wildtype Plectasin; average of two independent experiments
# Summary of the method: (§2)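 Purified Plectasin variants were tested for MIC per NCCLS/CLSI guidelines; strains D and E are multi-resistant clinical human MRSA isolates. MICs average two independent experiments and are scored relative to wild-type Plectasin MIC: 0 >100%, 1 80-100%, 2 50-80%, 3 <50%.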
# [4] = test system: panel of 6 different strains of Staphylococcus aureus; assay: Average MIC, NCCLS/CLSI guidelines using caMHB (Example 6); type: cell-based; details: average over 6 S. aureus strains, duplicate; MIC above 32 counted as 64; read after 18-24 hours at 37° C.
# Summary of the method: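 MICs were determined by broth dilution per NCCLS/CLSI in caMHB against six S. aureus strains (four MSSA, two MRSA), with peptides at 0.03–32 microgram/mL, read after 18-24 h at 37° C. Each was tested in duplicate and the two results averaged; MICs above 32 micrograms/mL were counted as 64.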
# [5] = test system: Staphylococcus aureus, ATCC 25923; assay: MIC, NCCLS/CLSI guidelines (Example 5), strain B; type: cell-based; details: relative to wildtype Plectasin; average of two independent experiments
# Summary of the method: (§3)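 MICs of purified plectasin peptides are measured according to NCCLS/CLSI guidance. Each value averages duplicate independent experiments and is given as a category relative to wild-type: 0 above 100%, 1 80-100%, 2 50-80%, 3 below 50%.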
# [6] = test system: Staphylococcus aureus, MRSA ST5 (2001); assay: MIC, NCCLS/CLSI guidelines (Example 5), strain D; type: cell-based; details: relative to wildtype Plectasin; average of two independent experiments
# Summary of the method: as §2
# [7] = test system: Staphylococcus aureus, ATCC 29737; assay: MIC, NCCLS/CLSI guidelines (Example 5), strain C; type: cell-based; details: relative to wildtype Plectasin; average of two independent experiments
# Summary of the method: as §3
# B. subtilis [8] = assay: Minimal Inhibitory Concentration, NCCLS guidelines (Example 4); type: cell-based, Bacillus subtilis; details: purified peptide
# Protocol: (§4) The Minimal Inhibitory Concentration (MIC, micrograms/mL) was determined to test for their antimicrobial activity following the NCCLS guidelines (Clinical and Laboratory Standards Institute; formerly known as National Committee for Clinical and Laboratory Standards).
# [9] = test system: Staphylococcus aureus, ATCC 29213; assay: MIC, NCCLS/CLSI guidelines (Example 5), strain A; type: cell-based; details: relative to wildtype Plectasin; average of two independent experiments
# Summary of the method: as §3
# S. aureus = assay: Minimal Inhibitory Concentration, NCCLS guidelines (Example 4); type: cell-based, Staphylococcus aureus; details: purified peptide
# Protocol: as §4
# M. luteus [10] = assay: as above; type: cell-based, Micrococcus luteus; details: purified peptide
# Protocol: as §4
Substance,"Activity (antimicrobial activity, clearing zone size) (Staphylococcus carnosus)",MEC against B. subtilis (B. subtilis [1]),MEC against S. epidermis (S. epidermis),MEC against M. luteus (M. luteus [2]),"Relative MIC, strain E [3]",Average MIC [4],"Relative MIC, strain B [5]","Relative MIC, strain D [6]","Relative MIC, strain C [7]",MIC against B. subtilis (B. subtilis [8]),"Relative MIC, strain A [9]",MIC against S. aureus (S. aureus),MIC against M. luteus (M. luteus [10])
GFGCNGPWDEDDMQCHNHCKSIKGYKGGYCAKGGFVCKCYR [Mutation Y40YR],2,0.05 micrograms/mL,0.31 micrograms/mL,0.18 micrograms/mL,–,–,–,–,–,–,–,–,–
GFGCNGPWDEDDMQCHRHCKSIKGYKGGYCAKGGFVCKCY [Mutation N17R],2,0.07 micrograms/mL,0.59 micrograms/mL,0.32 micrograms/mL,2 (50-80% of Plectasin wildtype MIC),4 micrograms/mL,3 (<50% of Plectasin wildtype MIC),3 (<50% of Plectasin wildtype MIC),3 (<50% of Plectasin wildtype MIC),–,–,–,–
GFGCNGPWDEGDMQCHNHCKSIKGYRGGYCAKGGFVCKCYR (Synthetic antimicrobial polypeptide) [D11G + K26R + Y40YR],4,–,–,–,–,9 micrograms/mL,3 (<50% of Plectasin wildtype MIC),3 (<50% of Plectasin wildtype MIC),3 (<50% of Plectasin wildtype MIC),0.06 micrograms/mL,3 (<50% of Plectasin wildtype MIC),0.50 micrograms/mL,0.25 micrograms/mL
Y25R (GFGCNGPWDEDDMQCHNHCKSIKGRKGGYCAKGGFVCKCY) [Mutation Y25R],–,0.04 micrograms/mL,–,1.40 micrograms/mL,–,–,–,–,–,–,–,–,–
